According to patent publication US20080009418A1, “Selective Inhibitors” (Alchemia LTD., priority 2004, published 2008):

Assays:
[1] = biological target: T1, Human neuropeptide Y (NPY-Y1) (Homo sapiens, UniProt P25929); assay: Radioligand binding, human neuropeptide Y NPY-Y1 membranes, FlashPlate, [125I]-PYY; conditions: compound at 10 μM, [125I]-PYY
T1 construct: purchased Perkin Elmer Biosignal
T1 sequence (P25929 1-384): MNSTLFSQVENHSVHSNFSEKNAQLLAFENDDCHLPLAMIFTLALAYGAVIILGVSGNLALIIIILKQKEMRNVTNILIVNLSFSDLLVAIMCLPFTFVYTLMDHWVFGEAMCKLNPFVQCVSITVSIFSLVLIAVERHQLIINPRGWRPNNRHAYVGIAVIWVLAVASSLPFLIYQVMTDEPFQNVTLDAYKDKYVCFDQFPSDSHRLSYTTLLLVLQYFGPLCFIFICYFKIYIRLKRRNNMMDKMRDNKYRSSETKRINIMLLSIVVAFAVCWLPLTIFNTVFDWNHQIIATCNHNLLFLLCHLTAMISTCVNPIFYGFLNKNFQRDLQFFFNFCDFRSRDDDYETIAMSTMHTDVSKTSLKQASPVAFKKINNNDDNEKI
Procedure, shortened: (§1)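 Cloned human receptor membranes were coated onto FlashPlate wells and incubated with radioligand and compound (added from a 0.5 mM DMSO daughter plate) for 1 hour at room temperature in the dark. Scintillation counting gave percent inhibition, with DMSO defining total and reference ligand defining non-specific binding.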

Mouse urotensin (mUR2) = biological target: T2, Mouse urotensin (mUR2) (Mus musculus, UniProt Q8VIH9); assay: Radioligand binding, mouse urotensin mUR2 membranes, FlashPlate, [125I]-Urotensin II; conditions: compound at 10 μM, [125I]-Urotensin II
T2 construct: purchased Perkin Elmer Biosignal
T2 sequence (Q8VIH9 1-385): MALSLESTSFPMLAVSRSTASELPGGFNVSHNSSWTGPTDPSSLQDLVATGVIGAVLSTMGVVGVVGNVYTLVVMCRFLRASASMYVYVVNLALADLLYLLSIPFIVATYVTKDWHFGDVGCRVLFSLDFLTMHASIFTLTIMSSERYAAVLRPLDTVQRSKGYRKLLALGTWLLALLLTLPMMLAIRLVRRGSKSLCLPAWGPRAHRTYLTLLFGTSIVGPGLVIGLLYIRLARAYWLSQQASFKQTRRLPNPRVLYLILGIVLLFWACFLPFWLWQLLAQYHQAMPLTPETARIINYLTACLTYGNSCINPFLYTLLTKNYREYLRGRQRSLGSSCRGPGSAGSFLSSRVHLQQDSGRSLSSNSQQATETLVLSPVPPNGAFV
Procedure, shortened: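 Cloned mouse urotensin (mUR2) receptor membranes from Perkin Elmer Biosignal were immobilized in FlashPlate microplates using a proprietary coating. Each well got 19.5 μl buffer, then 0.5 μl of DMSO, reference ligand, or compound. Adding 5 μl of [125I]-Urotensin II, diluted to 5× final concentration in binding buffer, started binding. Plates were sealed with TopSeal-A and incubated 1 hour at room temperature in the dark. Wells were counted for 30 seconds each on a TopCount after a 60-second delay, and percentage inhibition was calculated.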

Human μ-opioid (MOP) = biological target: T3, Human μ-opioid (MOP) (Homo sapiens, UniProt P35372); assay: Radioligand binding, human μ-opioid (MOP) membranes, FlashPlate, [3H]-Naloxone; conditions: compound at 10 μM, [3H]-Naloxone
T3 construct: purchased Perkin Elmer Biosignal
Procedure, shortened: as §1

Human Melanocortin (MC4) = biological target: T4, Human Melanocortin (MC4) (Homo sapiens, UniProt P32245); assay: Radioligand binding, human melanocortin MC4 membranes, FlashPlate, [125I]-NDP-αMSH; conditions: compound at 10 μM, [125I]-NDP-αMSH
T4 construct: purchased Perkin Elmer Biosignal
Procedure, shortened: as §1

Human opioid (ORL1) = biological target: T5, Human opioid (ORL1) (Homo sapiens, UniProt P41146); assay: Radioligand binding, human opioid ORL1 membranes, FlashPlate, [125I]-Nociceptin; conditions: compound at 10 μM, [125I]-Nociceptin
T5 construct: purchased Perkin Elmer Biosignal
Procedure, shortened: as §1

Human melanocortin (MC5) = biological target: T6, Human melanocortin (MC5) (Homo sapiens, UniProt P33032); assay: Radioligand binding, human melanocortin MC5 membranes, FlashPlate, [125I]-NDP-αMSH; conditions: compound at 10 μM, [125I]-NDP-αMSH
T6 construct: purchased Perkin Elmer Biosignal
Procedure, shortened: as §1

Human κ-Opioid (KOP) = biological target: T7, Human κ-Opioid (KOP) (Homo sapiens, UniProt P41145); assay: Radioligand binding, human κ-opioid (KOP) membranes, filtration, [3H]-Diprenorphine; conditions: compound at 10 μM, [3H]-Diprenorphine
T7 construct: purchased Perkin Elmer Biosignal
Procedure, shortened: (§2)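 Filtration binding on cloned human receptor membranes (1 Unit/well), [125I]-Substance P for NK1 and [3H]-Diprenorphine for KOP, 1 h at room temperature. Filters PEI-presoaked, washed with cold 50 mM Tris-HCl pH 7.4, counted by scintillation; percent inhibition calculated, reference ligand defining non-specific binding.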

Human δ-opioid (DOP) = biological target: T8, Human δ-opioid (DOP) (Homo sapiens, UniProt P41143); assay: Radioligand binding, human δ-opioid (DOP) membranes, FlashPlate, [3H]-Bremazocine; conditions: compound at 10 μM, [3H]-Bremazocine
T8 construct: purchased Perkin Elmer Biosignal
Procedure, shortened: as §1

[2] = biological target: T9, Human melanin-concentrating hormone (MCH1) (Homo sapiens, UniProt Q99705); assay: Radioligand binding, human melanin-concentrating hormone MCH1 membranes, FlashPlate, [125I]-S36057; conditions: compound at 10 μM
T9 construct: purchased Perkin Elmer Biosignal
Procedure, shortened: as §1

Human neurokinin (NK1) = biological target: T10, Human neurokinin (NK1) (Homo sapiens, UniProt P25103); assay: Radioligand binding, human neurokinin NK1 membranes, filtration, [125I]-Substance P; conditions: compound at 10 μM, [125I]-Substance P
T10 construct: purchased Perkin Elmer Biosignal
Procedure, shortened: as §2

Human Melanocortin (MC3) = biological target: T11, Human Melanocortin (MC3) (Homo sapiens, UniProt P41968); assay: Radioligand binding, human melanocortin MC3 membranes, FlashPlate, [125I]-NDP-αMSH; conditions: compound at 10 μM, [125I]-NDP-αMSH
T11 construct: purchased Perkin Elmer Biosignal
Procedure, shortened: as §1

T8 sequence (P41143 whole entry): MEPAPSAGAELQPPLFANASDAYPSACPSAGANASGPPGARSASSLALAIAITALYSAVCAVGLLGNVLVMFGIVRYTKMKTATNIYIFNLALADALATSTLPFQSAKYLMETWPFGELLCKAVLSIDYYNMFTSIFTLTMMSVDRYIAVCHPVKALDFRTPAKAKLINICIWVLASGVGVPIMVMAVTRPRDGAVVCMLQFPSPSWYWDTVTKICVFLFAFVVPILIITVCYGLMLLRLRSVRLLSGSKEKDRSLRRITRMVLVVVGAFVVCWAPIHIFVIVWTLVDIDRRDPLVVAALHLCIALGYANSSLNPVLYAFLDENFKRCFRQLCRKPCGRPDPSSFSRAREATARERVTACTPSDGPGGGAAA
T3 sequence (P35372 whole entry): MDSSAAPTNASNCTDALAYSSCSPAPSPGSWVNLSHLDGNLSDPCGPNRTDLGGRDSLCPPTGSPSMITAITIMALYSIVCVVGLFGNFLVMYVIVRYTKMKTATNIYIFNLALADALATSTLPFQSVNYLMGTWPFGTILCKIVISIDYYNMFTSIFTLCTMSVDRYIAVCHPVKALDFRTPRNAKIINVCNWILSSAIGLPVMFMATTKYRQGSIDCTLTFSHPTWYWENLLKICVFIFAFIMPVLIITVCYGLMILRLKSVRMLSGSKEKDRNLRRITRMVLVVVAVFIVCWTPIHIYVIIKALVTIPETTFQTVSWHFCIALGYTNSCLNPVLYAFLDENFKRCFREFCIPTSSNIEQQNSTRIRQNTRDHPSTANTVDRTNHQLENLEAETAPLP
T9 sequence (Q99705 whole entry): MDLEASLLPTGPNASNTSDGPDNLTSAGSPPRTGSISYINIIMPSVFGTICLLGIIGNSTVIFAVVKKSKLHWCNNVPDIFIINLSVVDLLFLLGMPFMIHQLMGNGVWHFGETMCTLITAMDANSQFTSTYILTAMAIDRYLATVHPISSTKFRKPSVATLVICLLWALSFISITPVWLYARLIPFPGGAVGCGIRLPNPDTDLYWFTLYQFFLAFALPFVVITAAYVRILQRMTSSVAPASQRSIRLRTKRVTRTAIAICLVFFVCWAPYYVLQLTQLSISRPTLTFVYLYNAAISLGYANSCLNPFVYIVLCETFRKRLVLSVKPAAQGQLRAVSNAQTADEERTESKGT
T4 sequence (P32245 whole entry): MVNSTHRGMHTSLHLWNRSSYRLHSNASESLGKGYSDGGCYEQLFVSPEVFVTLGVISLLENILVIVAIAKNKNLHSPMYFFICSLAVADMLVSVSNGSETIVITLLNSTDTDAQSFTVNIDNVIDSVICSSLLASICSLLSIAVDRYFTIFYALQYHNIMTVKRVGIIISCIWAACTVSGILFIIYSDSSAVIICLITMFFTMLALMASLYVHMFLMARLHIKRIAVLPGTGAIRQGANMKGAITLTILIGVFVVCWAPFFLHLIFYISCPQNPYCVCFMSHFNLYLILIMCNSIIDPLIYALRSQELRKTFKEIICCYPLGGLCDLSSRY
T7 sequence (P41145 whole entry): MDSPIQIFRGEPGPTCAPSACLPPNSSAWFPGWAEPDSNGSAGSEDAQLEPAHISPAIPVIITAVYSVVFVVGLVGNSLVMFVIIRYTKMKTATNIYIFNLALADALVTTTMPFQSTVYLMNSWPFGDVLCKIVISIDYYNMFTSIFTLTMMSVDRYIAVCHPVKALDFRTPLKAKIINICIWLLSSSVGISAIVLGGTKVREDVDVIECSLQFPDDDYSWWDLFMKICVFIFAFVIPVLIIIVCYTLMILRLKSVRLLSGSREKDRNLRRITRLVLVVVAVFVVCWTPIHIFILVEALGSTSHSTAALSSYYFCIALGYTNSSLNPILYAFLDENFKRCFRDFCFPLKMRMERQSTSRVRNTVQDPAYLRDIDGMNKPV
T11 sequence (P41968 whole entry): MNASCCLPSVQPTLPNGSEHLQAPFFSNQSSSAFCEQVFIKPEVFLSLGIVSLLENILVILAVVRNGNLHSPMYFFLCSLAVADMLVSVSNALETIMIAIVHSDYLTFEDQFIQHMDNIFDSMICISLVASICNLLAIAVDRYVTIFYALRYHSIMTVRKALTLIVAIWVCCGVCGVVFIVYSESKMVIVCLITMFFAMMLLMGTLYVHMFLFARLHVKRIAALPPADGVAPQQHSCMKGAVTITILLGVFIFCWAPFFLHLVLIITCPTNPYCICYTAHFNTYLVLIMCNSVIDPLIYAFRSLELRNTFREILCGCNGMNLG
T10 sequence (P25103 whole entry): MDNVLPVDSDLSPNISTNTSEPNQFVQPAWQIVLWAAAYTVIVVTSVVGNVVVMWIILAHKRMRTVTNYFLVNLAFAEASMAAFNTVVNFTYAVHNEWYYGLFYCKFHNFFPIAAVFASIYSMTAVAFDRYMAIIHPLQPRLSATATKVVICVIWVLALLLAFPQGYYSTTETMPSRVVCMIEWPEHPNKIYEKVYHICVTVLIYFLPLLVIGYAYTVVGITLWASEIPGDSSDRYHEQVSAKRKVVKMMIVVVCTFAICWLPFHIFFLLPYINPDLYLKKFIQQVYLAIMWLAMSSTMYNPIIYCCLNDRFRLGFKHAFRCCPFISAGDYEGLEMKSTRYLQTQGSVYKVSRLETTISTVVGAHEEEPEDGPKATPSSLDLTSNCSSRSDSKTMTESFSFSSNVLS
T6 sequence (P33032 whole entry): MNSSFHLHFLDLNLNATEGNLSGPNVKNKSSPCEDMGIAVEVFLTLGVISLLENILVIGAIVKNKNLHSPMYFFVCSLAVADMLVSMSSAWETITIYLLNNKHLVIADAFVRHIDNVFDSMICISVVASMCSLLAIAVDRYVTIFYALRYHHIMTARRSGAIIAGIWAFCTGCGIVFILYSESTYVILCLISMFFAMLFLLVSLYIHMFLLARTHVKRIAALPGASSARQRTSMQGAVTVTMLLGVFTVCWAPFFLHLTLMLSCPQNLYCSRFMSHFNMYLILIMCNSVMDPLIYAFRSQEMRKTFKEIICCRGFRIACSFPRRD
T5 sequence (P41146 whole entry): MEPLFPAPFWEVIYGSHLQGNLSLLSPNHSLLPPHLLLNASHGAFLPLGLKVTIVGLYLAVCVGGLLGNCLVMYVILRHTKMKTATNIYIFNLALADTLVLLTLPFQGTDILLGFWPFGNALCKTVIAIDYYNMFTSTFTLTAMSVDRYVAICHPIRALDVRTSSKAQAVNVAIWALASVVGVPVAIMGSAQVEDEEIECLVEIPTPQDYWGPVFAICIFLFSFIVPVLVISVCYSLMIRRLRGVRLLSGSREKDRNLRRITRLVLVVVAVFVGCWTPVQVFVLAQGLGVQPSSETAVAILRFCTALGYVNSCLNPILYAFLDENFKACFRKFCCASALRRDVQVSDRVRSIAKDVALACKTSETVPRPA

Structure (SMILES): N=C(N)NCCC(=O)N[C@H]1C(OCc2ccc(Cl)cc2)O[C@H](COCc2ccccc2)[C@@H](O)[C@@H]1OCc1ccc(Cl)cc1 (stereo partly shown) [compound 524]
- A9: inhibition of radioligand binding, human neuropeptide Y (NPY-Y1) [1]: − (“−” indicates less than 50% inhibition at 10 μM)
- A11: inhibition of radioligand binding, mouse urotensin (mUR2) (Mouse urotensin (mUR2)): − (“−” indicates less than 50% inhibition at 10 μM)
- A7: inhibition of radioligand binding, human μ-opioid (MOP) (Human μ-opioid (MOP)): − (“−” indicates less than 50% inhibition at 10 μM)
- A4: inhibition of radioligand binding, human melanocortin (MC4) (Human Melanocortin (MC4); 10 µM): − (“−” indicates less than 50% inhibition at 10 μM)
- A10: inhibition of radioligand binding, human opioid (ORL1) (Human opioid (ORL1)): − (“−” indicates less than 50% inhibition at 10 μM)
- A5: inhibition of radioligand binding, human melanocortin (MC5) (Human melanocortin (MC5)): + (“+” indicates greater than 50% inhibition at 10 μM)
- A2: inhibition of radioligand binding, human κ-opioid (KOP) (Human κ-Opioid (KOP); 10 µM): − (“−” indicates less than 50% inhibition at 10 μM)
- A1: inhibition of radioligand binding, human δ-opioid (DOP) (Human δ-opioid (DOP)): − (“−” indicates less than 50% inhibition at 10 μM)
- A6: inhibition of radioligand binding, human melanin-concentrating hormone (MCH1) ([2]; [125I]-S36057): + (“+” indicates greater than 50% inhibition at 10 μM)
- A8: inhibition of radioligand binding, human neurokinin (NK1) (Human neurokinin (NK1)): + (“+” indicates greater than 50% inhibition at 10 μM)
- A3: inhibition of radioligand binding, human melanocortin (MC3) (Human Melanocortin (MC3); 10 µM): − (“−” indicates less than 50% inhibition at 10 μM)

Structure (SMILES): COCC1OC(OCc2ccc(Cl)cc2)C(NC(=O)CNC(=N)N)C(OCc2ccccc2)C1O (stereo not shown) [compound 194]
- A9: inhibition of radioligand binding ([1]; FlashPlate): − (“−” indicates less than 50% inhibition at 10 μM)
- A11: inhibition of radioligand binding (Mouse urotensin (mUR2); FlashPlate): − (“−” indicates less than 50% inhibition at 10 μM)
- A7: inhibition of radioligand binding (Human μ-opioid (MOP); FlashPlate): − (“−” indicates less than 50% inhibition at 10 μM)
- A4: inhibition of radioligand binding (Human Melanocortin (MC4); FlashPlate): + (“+” indicates greater than 50% inhibition at 10 μM)
- A10: inhibition of radioligand binding (Human opioid (ORL1); FlashPlate): − (“−” indicates less than 50% inhibition at 10 μM)
- A5: inhibition of radioligand binding (Human melanocortin (MC5); FlashPlate): + (“+” indicates greater than 50% inhibition at 10 μM)
- A2: inhibition of radioligand binding (Human κ-Opioid (KOP); filtration): − (“−” indicates less than 50% inhibition at 10 μM)
- A1: inhibition of radioligand binding (Human δ-opioid (DOP); FlashPlate): − (“−” indicates less than 50% inhibition at 10 μM)
- A6: inhibition of radioligand binding ([2]; [125I]-S36057, FlashPlate): − (“−” indicates less than 50% inhibition at 10 μM)
- A8: inhibition of radioligand binding (Human neurokinin (NK1); filtration): + (“+” indicates greater than 50% inhibition at 10 μM)
- A3: inhibition of radioligand binding (Human Melanocortin (MC3); FlashPlate): − (“−” indicates less than 50% inhibition at 10 μM)

Structure (SMILES): N=C(N)NCC(=O)NC1C(OCc2ccc(Cl)cc2)OC(COCc2ccc3ccccc3c2)C(O)C1OCc1ccc(Cl)cc1 (stereo not shown) [compound 417]
- A9: inhibition of radioligand binding ([1]; human NPY-Y1 membranes): − (“−” indicates less than 50% inhibition at 10 μM)
- A11: inhibition of radioligand binding (Mouse urotensin (mUR2); mouse mUR2 membranes): − (“−” indicates less than 50% inhibition at 10 μM)
- A7: inhibition of radioligand binding (Human μ-opioid (MOP); human MOP membranes): − (“−” indicates less than 50% inhibition at 10 μM)
- A4: inhibition of radioligand binding (Human Melanocortin (MC4); human MC4 membranes): + (“+” indicates greater than 50% inhibition at 10 μM)
- A10: inhibition of radioligand binding (Human opioid (ORL1); human ORL1 membranes): − (“−” indicates less than 50% inhibition at 10 μM)
- A5: inhibition of radioligand binding (Human melanocortin (MC5); human MC5 membranes): + (“+” indicates greater than 50% inhibition at 10 μM)
- A2: inhibition of radioligand binding (Human κ-Opioid (KOP); human KOP membranes): − (“−” indicates less than 50% inhibition at 10 μM)
- A1: inhibition of radioligand binding (Human δ-opioid (DOP); human DOP membranes): − (“−” indicates less than 50% inhibition at 10 μM)
- A6: inhibition of radioligand binding ([2]; [125I]-S36057, human MCH1 membranes): + (“+” indicates greater than 50% inhibition at 10 μM)
- A8: inhibition of radioligand binding (Human neurokinin (NK1); human NK1 membranes): + (“+” indicates greater than 50% inhibition at 10 μM)
- A3: inhibition of radioligand binding (Human Melanocortin (MC3); human MC3 membranes): + (“+” indicates greater than 50% inhibition at 10 μM)

Structure (SMILES): NCCCC(=O)NC1C(OCc2ccc(Cl)cc2)OC(COCc2ccc3ccccc3c2)C(O)C1OCc1ccc2ccccc2c1 (single isomer, unassigned) [compound 495]
- A9: inhibition of radioligand binding, human neuropeptide Y (NPY-Y1) [1]: − (“−” indicates less than 50% inhibition at 10 μM)
- A11: inhibition of radioligand binding, mouse urotensin (mUR2) (Mouse urotensin (mUR2)): − (“−” indicates less than 50% inhibition at 10 μM)
- A7: inhibition of radioligand binding, human μ-opioid (MOP) (Human μ-opioid (MOP)): + (“+” indicates greater than 50% inhibition at 10 μM)
- A4: inhibition of radioligand binding, human melanocortin (MC4) (Human Melanocortin (MC4)): + (“+” indicates greater than 50% inhibition at 10 μM)
- A10: inhibition of radioligand binding, human opioid (ORL1) (Human opioid (ORL1)): + (“+” indicates greater than 50% inhibition at 10 μM)
- A5: inhibition of radioligand binding, human melanocortin (MC5) (Human melanocortin (MC5)): + (“+” indicates greater than 50% inhibition at 10 μM)
- A2: inhibition of radioligand binding, human κ-opioid (KOP) (Human κ-Opioid (KOP)): − (“−” indicates less than 50% inhibition at 10 μM)
- A1: inhibition of radioligand binding, human δ-opioid (DOP) (Human δ-opioid (DOP)): − (“−” indicates less than 50% inhibition at 10 μM)
- A6: inhibition of radioligand binding, human melanin-concentrating hormone (MCH1) ([2]; [125I]-S36057): + (“+” indicates greater than 50% inhibition at 10 μM)
- A8: inhibition of radioligand binding, human neurokinin (NK1) (Human neurokinin (NK1)): + (“+” indicates greater than 50% inhibition at 10 μM)
- A3: inhibition of radioligand binding, human melanocortin (MC3) (Human Melanocortin (MC3)): + (“+” indicates greater than 50% inhibition at 10 μM)

Structure (SMILES): CO[C@H]1[C@H](O)[C@@H](COCc2cccc(O)c2)OC(OCc2ccccc2)[C@@H]1NC(=O)CCCN (stereo partly shown) [compound 153]
- A9 radioligand binding, percentage inhibition [1]: − (“−” indicates less than 50% inhibition at 10 μM)
- A11 radioligand binding, percentage inhibition (Mouse urotensin (mUR2)): − (“−” indicates less than 50% inhibition at 10 μM)
- A7 radioligand binding, percentage inhibition (Human μ-opioid (MOP)): − (“−” indicates less than 50% inhibition at 10 μM)
- A4 radioligand binding, percentage inhibition (Human Melanocortin (MC4)): − (“−” indicates less than 50% inhibition at 10 μM)
- A10 radioligand binding, percentage inhibition (Human opioid (ORL1)): − (“−” indicates less than 50% inhibition at 10 μM)
- A5 radioligand binding, percentage inhibition (Human melanocortin (MC5)): − (“−” indicates less than 50% inhibition at 10 μM)
- A2 radioligand binding, percentage inhibition (Human κ-Opioid (KOP)): − (“−” indicates less than 50% inhibition at 10 μM)
- A1 radioligand binding, percentage inhibition (Human δ-opioid (DOP)): − (“−” indicates less than 50% inhibition at 10 μM)
- A6 radioligand binding, percentage inhibition ([2]; [125I]-S36057): − (“−” indicates less than 50% inhibition at 10 μM)
- A8 radioligand binding, percentage inhibition (Human neurokinin (NK1)): + (“+” indicates greater than 50% inhibition at 10 μM)
- A3 radioligand binding, percentage inhibition (Human Melanocortin (MC3)): − (“−” indicates less than 50% inhibition at 10 μM)
